Among the data in patent US8173635B2, “Kinase inhibitors” (Vertex Pharmaceuticals Incorporated, priority 2007, dated 2012) are Ki values, retold here.

Some results are limits rather than exact numbers.

Common to all, as to type: biochemical
For one assay, the target named is PKC theta kinase (Homo sapiens, UniProt Q04759). Kind of assay: PKC theta kinase inhibition, coupled-enzyme NADH absorbance assay (Ki). The settings on record: 240 μM ATP, 18 nM PKC theta, 30° C.; read-out: Ki PKC theta. A digest of the protocol:
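Enzyme and compound equilibrated 10 min at 30 °C before reaction in HEPES pH 7.5 buffer with MgCl2, NaCl, EDTA and Brij. Activity tracked as NADH loss at 340 nm through a coupled system. Initial-rate data fitted by non-linear regression to give Ki.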

The target in another assay is PKC delta kinase (Homo sapiens, UniProt Q05655). Kind of assay: PKC delta kinase inhibition, coupled-enzyme NADH absorbance assay (Ki). The conditions noted are these: 150 μM ATP, 46 nM PKC delta, 30° C.; read-out: Ki PKC delta. A digest of the protocol:
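Assay buffer was 100 mM HEPES pH 7.5, 10 mM MgCl2, 25 mM NaCl, 0.1 mM EDTA, 0.01% Brij. Enzyme buffer was equilibrated with compound in DMSO for 10 min at 30 °C. Ki values were derived by non-linear regression of initial rate data.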

Another assay has as its target PKC alpha kinase (Homo sapiens, UniProt P17252). Kind of assay: PKC alpha kinase inhibition, coupled-enzyme NADH absorbance assay (Ki). The conditions noted are these: 130 μM ATP, 4.5 nM PKC alpha, 30° C.; read-out: Ki PKC alpha.

Chain of PKC delta kinase (Q05655 whole entry): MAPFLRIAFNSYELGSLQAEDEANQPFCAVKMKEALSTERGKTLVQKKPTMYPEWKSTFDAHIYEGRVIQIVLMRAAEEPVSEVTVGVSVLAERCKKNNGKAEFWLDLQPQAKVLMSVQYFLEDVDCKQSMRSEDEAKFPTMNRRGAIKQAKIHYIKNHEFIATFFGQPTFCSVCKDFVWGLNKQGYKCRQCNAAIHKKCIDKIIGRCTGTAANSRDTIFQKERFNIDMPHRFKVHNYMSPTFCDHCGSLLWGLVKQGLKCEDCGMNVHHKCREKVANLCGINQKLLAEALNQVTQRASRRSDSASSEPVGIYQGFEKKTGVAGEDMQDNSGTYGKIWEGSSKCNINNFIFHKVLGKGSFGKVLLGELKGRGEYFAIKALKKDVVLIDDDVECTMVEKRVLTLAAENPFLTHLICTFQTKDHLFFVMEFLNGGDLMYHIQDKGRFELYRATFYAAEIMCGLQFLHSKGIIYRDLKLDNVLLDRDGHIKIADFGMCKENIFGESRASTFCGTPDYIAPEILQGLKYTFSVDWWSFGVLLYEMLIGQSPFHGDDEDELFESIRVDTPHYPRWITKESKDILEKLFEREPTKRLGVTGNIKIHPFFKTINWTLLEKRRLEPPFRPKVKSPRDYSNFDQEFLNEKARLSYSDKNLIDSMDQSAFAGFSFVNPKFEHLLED
Chain of PKC theta kinase (Q04759 whole entry): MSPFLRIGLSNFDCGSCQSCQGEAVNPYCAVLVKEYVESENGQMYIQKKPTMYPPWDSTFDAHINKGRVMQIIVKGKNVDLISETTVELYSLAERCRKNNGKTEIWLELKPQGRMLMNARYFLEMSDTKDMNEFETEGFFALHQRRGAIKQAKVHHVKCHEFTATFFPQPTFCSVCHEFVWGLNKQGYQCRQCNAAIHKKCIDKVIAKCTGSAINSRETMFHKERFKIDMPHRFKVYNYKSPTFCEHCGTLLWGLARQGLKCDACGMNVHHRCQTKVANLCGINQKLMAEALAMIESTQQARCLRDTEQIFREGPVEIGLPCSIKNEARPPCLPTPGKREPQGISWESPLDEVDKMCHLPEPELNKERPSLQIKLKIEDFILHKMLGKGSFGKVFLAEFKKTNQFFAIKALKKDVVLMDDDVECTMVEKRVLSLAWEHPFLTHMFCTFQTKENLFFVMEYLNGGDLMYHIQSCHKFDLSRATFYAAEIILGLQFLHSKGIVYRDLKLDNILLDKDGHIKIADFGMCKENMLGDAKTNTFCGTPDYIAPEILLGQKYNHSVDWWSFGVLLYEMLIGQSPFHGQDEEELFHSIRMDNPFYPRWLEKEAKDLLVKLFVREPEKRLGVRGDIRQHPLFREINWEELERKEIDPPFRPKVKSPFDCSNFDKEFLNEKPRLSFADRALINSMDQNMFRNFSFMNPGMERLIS

For the compound `CCC(C)(CN)c1cc(-c2ccnc3[nH]ncc23)cc(C(F)(F)CCC2CCCCC2)c1` (stereo not drawn) [Compound 180], the Ki on PKC theta kinase is over 700 nM; on PKC delta kinase it was over 2000 nM; at PKC alpha kinase, over 1200 nM.

As to `NCC1(c2cccc(-c3ccnc4[nH]ncc34)c2)CC=C(F)CC1` (stereo not drawn) [Compound 184], the Ki on PKC theta kinase was under 50 nM; at PKC delta kinase, under 500 nM; at PKC alpha kinase, under 500 nM.

On to `CC(C)(C#N)c1cccc(-c2ccnc3[nH]ncc23)n1` [Compound 1, 2-(6-(1H-pyrazolo[3,4-b]pyridin-4-yl)pyridin-2-yl)-2-methylpropanenitrile], for which the results for the Ki at PKC theta kinase, at PKC delta kinase and on PKC alpha kinase were under 50 nM, under 500 nM and under 500 nM, respectively.

In the case of `CC(C)(N)CCc1cc(-c2ccnc3[nH]nc(C(F)(F)F)c23)cc(C2(C#N)CC2)c1` [Compound 317], the Ki on PKC theta kinase is under 50 nM; on PKC delta kinase, over 1200 nM; at PKC alpha kinase it was over 1200 nM.

As for `CC(C)C(C)(C#N)c1cccc(-c2ccnc3[nH]ncc23)c1` (stereo not drawn) [Compound 70], the Ki on PKC theta kinase is under 500 nM; on PKC delta kinase, under 2800 nM; on PKC alpha kinase, under 2800 nM.

Consider `CC(O)c1cccc(-c2ccnc3[nH]ncc23)c1` (stereo not drawn) [Compound 244], for which the Ki on PKC theta kinase is over 700 nM; at PKC delta kinase it was over 1200 nM; on PKC alpha kinase, over 1200 nM.

Consider `N#CC1(c2cc(-c3ccnc4[nH]ncc34)cc(C(F)(F)F)c2)CCC1` [Compound 92], for which the results for the Ki on PKC theta kinase, at PKC delta kinase and at PKC alpha kinase were under 500 nM, over 2800 nM and under 2800 nM, respectively.

In the case of `CCC1(c2cc(C)cc(-c3ccnc4[nH]nc(C(F)(F)F)c34)c2)CNC(=S)O1` (stereo not drawn) [Compound 296], the Ki is under 50 nM on PKC theta kinase, over 1200 nM on PKC delta kinase and under 500 nM on PKC alpha kinase.

Consider `CCC(CN)c1cccc(-c2ccnc3[nH]ncc23)c1` (stereo not drawn) [Compound 232], for which the Ki on PKC theta kinase was under 50 nM; on PKC delta kinase, under 500 nM; at PKC alpha kinase, under 500 nM.

`NC(CCC1CCCCC1)c1cccc(-c2ccnc3[nH]ncc23)c1` (stereo not drawn) [Compound 252]: the Ki on PKC theta kinase was over 700 nM; at PKC delta kinase, over 1200 nM; at PKC alpha kinase, over 1200 nM.

`NCC1(c2cccc(-c3ccnc4[nH]nc(Cl)c34)c2)CCOCC1` [Compound 206]: the Ki is under 50 nM at PKC theta kinase, under 500 nM at PKC delta kinase and under 500 nM at PKC alpha kinase.

Consider `Cc1cc(/C(=C/C#N)CN)cc(-c2ccnc3[nH]ncc23)c1` [Compound 323], for which the Ki at PKC theta kinase was under 500 nM; at PKC delta kinase it was under 2800 nM; at PKC alpha kinase it was under 500 nM.

On to `CCCc1cc(-c2ccnc3[nH]ncc23)cc(C2(CC#N)CCC2)c1` [Compound 125], for which the Ki at PKC theta kinase was under 500 nM; at PKC delta kinase, over 2000 nM; at PKC alpha kinase it was over 1200 nM.

Consider `OCc1cccc(-c2ccnc3[nH]ncc23)c1` [Compound 322], for which the Ki was over 700 nM at PKC theta kinase, over 1200 nM on PKC delta kinase and over 1200 nM on PKC alpha kinase.

Consider `CC(C)=CC1(c2cccc(-c3ccnc4[nH]ncc34)c2)CCNC1` (stereo not drawn) [Compound 199], for which the values for the Ki at PKC theta kinase, at PKC delta kinase and on PKC alpha kinase were under 50 nM, under 500 nM and under 500 nM, respectively.

With `CCC(C)(CNC)c1cccc(-c2ccnc3[nH]ncc23)c1` (stereo not drawn) [Compound 141], the values for the Ki on PKC theta kinase, on PKC delta kinase and at PKC alpha kinase were under 50 nM, under 500 nM and under 500 nM, respectively.

As to `NCC1(c2cccc(-c3ccnc4[nH]ncc34)c2)CCOCC1` [Compound 157], the Ki on PKC theta kinase was under 50 nM; at PKC delta kinase it was under 2800 nM; on PKC alpha kinase it was under 2800 nM.

With `CCc1ccc(-c2ccnc3[nH]ncc23)cc1C(C)(C)CN` [Compound 132], the results for the Ki on PKC theta kinase, at PKC delta kinase and on PKC alpha kinase were under 500 nM, under 2800 nM and under 2800 nM, respectively.

As to `CC(C)CC(C)(C#N)c1cccc(-c2ccnc3[nH]ncc23)c1` (stereo not drawn) [Compound 71], the Ki on PKC theta kinase, at PKC delta kinase and at PKC alpha kinase was under 2800 nM throughout.

On to `CCC(C)(C#N)c1cc(Br)cc(-c2ccnc3[nH]ncc23)c1` (stereo not drawn) [Compound 30], for which the Ki on PKC theta kinase was under 500 nM; at PKC delta kinase, under 2800 nM; on PKC alpha kinase, under 2800 nM.

For the compound `CCC(C)(CN(C)C)c1cccc(-c2ccnc3[nH]ncc23)c1` (stereo not drawn) [Compound 138, 2-(3-(1H-pyrazolo[3,4-b]pyridin-4-yl)phenyl)-N,N,2-trimethylbutan-1-amine], the Ki on PKC theta kinase is under 500 nM; at PKC delta kinase, under 2800 nM; at PKC alpha kinase it was under 2800 nM.

Turning to `CCC1(c2cc(C)cc(-c3ccnc4[nH]nc(C(F)(F)F)c34)c2)CNC(=O)O1` (stereo not drawn) [Compound 292], the Ki on PKC theta kinase was under 50 nM; at PKC delta kinase, over 1200 nM; on PKC alpha kinase it was under 500 nM.

For `CCCc1cc(-c2ccnc3[nH]ncc23)cc(C2(C#N)CCCC2)c1` [Compound 97], the Ki is under 500 nM at PKC theta kinase, over 2800 nM at PKC delta kinase and over 2800 nM at PKC alpha kinase.

With `CCc1n[nH]c2nccc(-c3cc(C)cc(C4(CN)CC4)c3)c12` [Compound 265], the Ki at PKC theta kinase is under 50 nM; at PKC delta kinase it was under 500 nM; on PKC alpha kinase, under 500 nM.

`NCC1(c2cccc(-c3ccnc4[nH]nc(C(F)(F)F)c34)c2)CC1` [Compound 278]: the Ki at PKC theta kinase is under 50 nM; on PKC delta kinase, under 500 nM; at PKC alpha kinase it was under 500 nM.
